Columns and labels:
rat primary OPC cultures [1] = test: OPC differentiation in rat primary OPC cultures (MBP+Sox10+ cells); assay type: cell-based; settings: 500 nM, 5 days in vitro
Experimental: Rat primary OPC cultures were obtained from neonatal pups (P0-P1). Brains were dissected, cerebellar cortices and meninges were removed. Brain tissues were next mechanically and enzymatically dissociated. After filtration and centrifugation, mixed cells of astrocytes, microglia and OPCs was cultured in DMEM medium on polyornithine-coated flasks. After 13-14 days of culture, microglial cells were removed by shaking during 2 h. OPCs were next collected after 18 h of shaking, followed by differential adhesion. OPCs purification was validated by immunostaining of Olig2 and Sox10. To induce differentiation, cells were kept in proliferation medium (DMEM-F12, 1% PS, FGF, PDGF, 1% laminin, Biotin, 2% B27, N1 mix) for 24 h and then switched to a differentiation medium with the same composition but deprived of FGF and PDGF. Cells were incubated at 37° C. (5% CO2) for 5 days and the medium was partially replaced every 2 days. Cells were then fixed in 2% paraformaldehyde and immunostained with Sox10 and MBP. Cells were incubated for 2 hours with primary antibodies Sox10 (Goat 1/100) and MBP (Rabbit 1/500) diluted in 4% BSA in PBS 0.1M/0.1% Triton. After washes, cells were then incubated with the secondary antibody (anti-Goat Alexa647, anti-Rabbit Alexa488 and Dapi) for 1 hour and finally washed in PBS 0.1M and mounted in Fluoromount medium. […]
Oligodendrocytes differentiation was assessed by analyzing the fold increase of MBP^+Sox10^+ cells in treated conditions relative to the basal condition. The percentage of MBP^+Sox10^+ cells were quantified after treatments with pan-VEGFRs and selective VEGFR-1 antagonists and compared with the basal medium. […] Myelination was assessed using organotypic cerebellar slices generated from P7 mice cerebellum and the effect of VEGFRs sub-types antagonists on myelination was analyzed after immunostaining for Sox10 for oligodendroglia, MBP for myelin (white) and calbindin (gray). […] The myelination index for each condition was quantified as the percentage of MBP+CaBP+ axons over the total CaBP+ axonal surface area and normalized relatively to basal condition.

[2] = system: organotypic cerebellar slices; test: Myelination in organotypic cerebellar slices from P7 mice (MBP/CaBP); assay type: cell-based; settings: 3 days ex vivo, slices from P7 mouse
Experimental: (§1) Organotypic cerebellar slices were generated from brains of postnatal day 0 (P0) and P7 mouse pups. Briefly, cerebella were dissected and cut into 350 μm slices. Cerebellar slices from the vermis were collected and then cultured on Millicell cell culture inserts (Millipore) in 6-wellplates in a medium composed of 50% Basal Medium Eagle, 25% Hank solution (HBSS), 25% inactivated horse serum, 5 mg/ml high-glucose, 1 mM L-glutamine, 0.2% penicillin-streptomycin. Slices were incubated at 37° C. (5% CO2) for 10 days (slices from P0) or 3 days (slices from P7). The culture medium was replaced every 2-3 days. For immunohistochemistry, slices were fixed in 4% paraformaldehyde and immunostained for CaBP and MBP. Briefly, slices were incubated in 4% BSA/0.2% triton for 1 hour and next incubated overnight with the following primary antibodies: rabbit anti-CaBP (dilution: 1/10000) and rat anti-MBP (dilution: 1/250). After several washes in PBS 0.1M, slices were then incubated with the secondary antibodies (anti-rabbit alexaFluor555, anti-mouse alexaFluor488) and Dapi for 2 hours and finally washed in PBS 0.1M and mounted in Fluoromount medium. Flurorescence imaging were performed with a confocal microscopy NIKON A1R-HD25.
Oligodendrocytes differentiation was assessed by analyzing the fold increase of MBP^+Sox10^+ cells in treated conditions relative to the basal condition. The percentage of MBP^+Sox10^+ cells were quantified after treatments with pan-VEGFRs and selective VEGFR-1 antagonists and compared with the basal medium. Results are shown as differentiation fold increase relative to the basal condition. Myelination was assessed using organotypic cerebellar slices generated from P7 mice cerebellum and the effect of VEGFRs sub-types antagonists on myelination was analyzed after immunostaining for Sox10 for oligodendroglia, MBP for myelin (white) and calbindin (gray). Slices were cultured in basal medium (control condition), or in the basal medium supplemented either with 9cis-RA (used as a positive control of myelination) or with VEGFR-1 selective and specific inhibitor (SU14813 and ZM306416), respectively. All compounds were used at 500 nM, except ZM306416 that has been used at 30 μM. The myelination index for each condition was quantified as the percentage of MBP+CaBP+ axons over the total CaBP+ axonal surface area and normalized relatively to basal condition.

Purkinje cells = test: Neuroprotection of Purkinje cells in organotypic cerebellar slices (CaBP immunostaining); assay type: cell-based; settings: 10 days in vitro, slices from P0 mouse
Experimental: as §1
The neuroprotective effects of the drugs were assessed by evaluating the density of Purkinje cells in basal medium alone and in basal medium supplemented with VEGFRs inhibitors. Organotypic cerebellar slices obtained from P0 mouse (as described above) were cultured for 10 days in vitro in basal medium alone, or in the basal medium supplemented either with pan-VEGFRs inhibitors, VEGFR-2/3 specific inhibitor (Telatinib) or with VEGFR-1 selective and specific inhibitors (SU14813 and ZM306416), respectively. All compounds were used at 500 nM, except ZM306416 that was used at 30 μM. After treatments, slices were immunostained for CaBP, as described above.

rat primary OPC cultures [3] = test: OPC differentiation (Olig2+MBP+ cells/Olig2+ cells) after VEGFR-1 shRNA or blocking peptide; assay type: cell-based; settings: blocking peptide vs control (basal medium), 5 days in differentiation medium
Experimental: Rat primary OPC cultures were obtained from neonatal pups (P0-P1). Brains were dissected, cerebellar cortices and meninges were removed. Brain tissues were next mechanically and enzymatically dissociated. After filtration and centrifugation, mixed cells of astrocytes, microglia and OPCs was cultured in DMEM medium on polyornithine-coated flasks. After 13-14 days of culture, microglial cells were removed by shaking during 2 h. OPCs were next collected after 18 h of shaking, followed by differential adhesion. OPCs purification was validated by immunostaining of Olig2 and Sox10. To induce differentiation, cells were kept in proliferation medium (DMEM-F12, 1% PS, FGF, PDGF, 1% laminin, Biotin, 2% B27, N1 mix) for 24 h and then switched to a differentiation medium with the same composition but deprived of FGF and PDGF. Cells were incubated at 37° C. […]
For RT-qPCR, transduction at MOI 8 and MOI 2 were used. […] For immunocytochemistry, transfection with MOI 4 was used and labelling with Olig2 and MBP to quantify Olig2+MBP+ differentiated oligodendrocytes.
Our data confirmed efficient lentivirus transduction with multiplicity of infection 4 (MOI 4) and knock-down of VEGFR-1 (FIG. 5A). […] To do so, we quantified Olig2+MBP+ differentiated oligodendrocytes over the total Olig2+ oligodendroglial cells (ratio of Olig2+MBP+ cells/Olig2+ cells) for each condition.

[4] = system: organotypic cerebellar slices; test: Myelination in organotypic cerebellar slices treated with VEGFR-1 blocking peptide; assay type: cell-based, mouse; settings: 10 μM, from 5 to 10 days in vitro
Experimental: as §1
Mouse cerebellar slices were prepared as previously described. […]

Molecule | number of SOX10+MBP+ differentiated oligodendrocytes relative to basal condition (rat primary OPC cultures [1]) | MBP+ mature oligodendrocytes in organotypic cerebellar slices ([2]; 500 nM) | neuroprotection / number of Purkinje cells relative to basal condition (Purkinje cells; 500 nM) | other results
CNC(=O)c1cccc2cc(Oc3ccnc4cc(OCC5(N)CC5)c(OC)cc34)ccc12 [Lucitanib] | significant increase | numerous MBP^+ mature oligodendrocytes | higher number of Purkinje cells with respect to the basal condition | 
Cc1[nH]c(C=C2C(=O)Nc3ccc(F)cc32)c(C)c1C(=O)NC[C@H](O)CN1CCOCC1 [SU14813] | significant increase | numerous MBP^+ mature oligodendrocytes | enhance neuroprotection of Purkinje cells | myelination index (density of myelinated axons) vs basal, 9 cis-RA, VEGFR-2/3 inhibitor and pan-VEGFR inhibitors ([2]; 500 nM): density of myelinated axons was higher
CNC(=O)c1cc(COc2nnc(Nc3ccc(Cl)cc3)c3ccoc23)ccn1 [Telatinib] | significant increase |  | but not of VEGFR-2/3 (Telatinib), enhance neuroprotection | 
COc1cc2ncnc(Nc3ccc(Cl)cc3F)c2cc1OC [ZM306416] |  |  |  | MBP+ mature oligodendrocytes in organotypic cerebellar slices ([2]; 30 μM): numerous MBP^+ mature oligodendrocytes; myelination index (density of myelinated axons) vs basal, 9 cis-RA, VEGFR-2/3 inhibitor and pan-VEGFR inhibitors ([2]; 30 μM): density of myelinated axons was higher; neuroprotection / number of Purkinje cells relative to basal condition (Purkinje cells; 30 μM): enhance neuroprotection of Purkinje cells
GNQWFI [VEGFR-1-blocking peptide] |  |  |  | fold increase in the number of Olig2+MBP+ cells (rat primary OPC cultures [3]): 1.18±0.19 fold; ex-vivo myelination (MBP+CaBP+ myelinated axons) [4]: enhances ex-vivo myelination

— patent publication US20250346635A1, “VASCULAR ENDOTHELIAL GROWTH FACTOR RECEPTOR-1 (VEGFR-1) INHIBITORS FOR PROMOTING MYELINATION AND NEUROPROTECTION” (ICM (INSTITUT DU CERVEAU ET DE LA MOELLE ÉPINIÉRE), priority 2022, published 2025)
